Reference: patent publication US10800792B2, “Inhibitors of Bruton's tyrosine kinase and method of their use” (JANSSEN PHARMACEUTICA NV, priority 2015, dated 2020)

Target: unphosphorylated-BTK kinase domain (UP-BTK), GST-tagged human BTK (389-659aa) (Homo sapiens (Human), UniProt Q06187)
Test: BTK kinase Lanthascreen binding assay
Details: unphosphorylated-BTK kinase domain, 50 nM Tracer 236, 60 minutes; pIC50 = negative log of the IC50 in molar
Summary of the method: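 Compound binding to the unphosphorylated kinase domain was monitored by displacement of a fluorescently labelled tracer in a Lanthascreen format. Potency is given as pIC50, the negative log of the molar IC50.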

Sequence of unphosphorylated-BTK kinase domain (UP-BTK), GST-tagged human BTK (389-659aa) (Q06187 389-659): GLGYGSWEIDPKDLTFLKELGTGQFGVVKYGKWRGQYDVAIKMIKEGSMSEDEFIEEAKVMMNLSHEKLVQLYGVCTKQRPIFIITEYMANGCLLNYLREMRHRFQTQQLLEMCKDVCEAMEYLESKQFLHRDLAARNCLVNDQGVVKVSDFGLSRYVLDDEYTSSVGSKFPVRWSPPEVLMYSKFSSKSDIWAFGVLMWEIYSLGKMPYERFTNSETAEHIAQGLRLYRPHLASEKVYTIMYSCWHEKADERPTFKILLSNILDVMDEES

BTK_I_binding pIC50 | Compound
<5 | O=C(N[C@@H]1CCCNC1)c1sc2nccc3c2c1NC(=O)N3c1ccn(Cc2ccccc2)n1 [Example 431, (R)-5-(1-Benzyl-1H-pyrazol-3-yl)-4-oxo-N-(piperidin-3-yl)-4,5-dihydro-3H-1-thia-3,5,8-triazaacenaphthylene-2-carboxamide]
7.3 | Cc1cc(Oc2ccccc2)ccc1N1C(=O)Nc2c(C(=O)NC3(CO)CCOCC3)sc3nccc1c23 [Example 436, N-(4-(Hydroxymethyl)tetrahydro-2H-pyran-4-yl)-5-(*S)-(2-methyl-4-phenoxyphenyl)-4-oxo-4,5-dihydro-3H-1-thia-3,5,8-triazaacenaphthylene-2-carboxamide]
5.8 | Cc1cc(Oc2ccccc2)ccc1N1C(=O)Nc2c(C(=O)NC3(CO)CCOCC3)sc3nccc1c23 [Example 437, N-(4-(Hydroxymethyl)tetrahydro-2H-pyran-4-yl)-5-(*R)-(2-methyl-4-phenoxyphenyl)-4-oxo-4,5-dihydro-3H-1-thia-3,5,8-triazaacenaphthylene-2-carboxamide]
7.6 | CN(C)C/C=C/C(=O)N1CC[C@@H](NC(=O)c2sc3nccc4c3c2NC(=O)N4c2ccc(Oc3ccccc3)cc2)C1 [Example 440, (R,E)-N-(1-(4-(Dimethylamino)but-2-enoyl)pyrrolidin-3-yl)-4-oxo-5-(4-phenoxyphenyl)-4,5-dihydro-3H-1-thia-3,5,8-triazaacenaphthylene-2-carboxamide]
7.7 | C=CC(=O)N1CC[C@@H](NC(=O)c2sc3nccc4c3c2NC(=O)N4c2ccc(Oc3ccccc3)cc2)C1 [Example 443, (R)—N-(1-Acryloylpyrrolidin-3-yl)-4-oxo-5-(4-phenoxyphenyl)-4,5-dihydro-3H-1-thia-3,5,8-triazaacenaphthylene-2-carboxamide]
7.2 | C=CC(=O)N1CCC[C@@H](NC(=O)c2sc3nccc4c3c2NC(=O)N4c2ccc(C(C)C)cc2C)C1 [Example 444, (R)—N-(1-Acryloylpiperidin-3-yl)-5-(4-isopropyl-2-methylphenyl)-4-oxo-4,5-dihydro-3H-1-thia-3,5,8-triazaacenaphthylene-2-carboxamide]
6.7 | C=CC(=O)N1CC[C@@H](NC(=O)c2sc3nccc4c3c2NC(=O)N4c2ccc(C(C)C)cc2C)C1 [Example 445, (R)—N-(1-Acryloylpyrrolidin-3-yl)-5-(4-isopropyl-2-methylphenyl)-4-oxo-4,5-dihydro-3H-1-thia-3,5,8-triazaacenaphthylene-2-carboxamide]
5.8 | Cc1cc(C(C)C)ccc1N1C(=O)Nc2c(C(=O)N[C@@H]3CCCNC3)sc3nccc1c23 [Example 446, (R)-5-(4-Isopropyl-2-methylphenyl)-4-oxo-N-(piperidin-3-yl)-4,5-dihydro-3H-1-thia-3,5,8-triazaacenaphthylene-2-carboxamide]
5.6 | Cc1cc(C(C)C)ccc1N1C(=O)Nc2c(C(=O)N[C@@H]3CCCN(C)C3)sc3nccc1c23 [Example 447, (R)-5-(4-Isopropyl-2-methylphenyl)-N-(1-methylpiperidin-3-yl)-4-oxo-4,5-dihydro-3H-1-thia-3,5,8-triazaacenaphthylene-2-carboxamide]
7.0 | C=CC(=O)N1CCC(CNC(=O)c2sc3nccc4c3c2NC(=O)N4c2ccc(Oc3ccccc3)cc2)C1 (stereo not shown) [Example 452, N-((1-Acryloylpyrrolidin-3-yl)methyl)-4-oxo-5-(4-phenoxyphenyl)-4,5-dihydro-3H-1-thia-3,5,8-triazaacenaphthylene-2-carboxamide]
6.4 | O=C(NCC1CCNC1)c1sc2nccc3c2c1NC(=O)N3c1ccc(Oc2ccccc2)cc1 (stereo not shown) [Example 453, 4-Oxo-5-(4-phenoxyphenyl)-N-(pyrrolidin-3-ylmethyl)-4,5-dihydro-3H-1-thia-3,5,8-triazaacenaphthylene-2-carboxamide]
<5 | O=C(N[C@@H]1CCCN(C(=O)n2ccnc2)C1)c1sc2nccc3c2c1NC(=O)N3c1ccc2c(c1)OC(F)(F)O2 [Example 454, (R)—N-(1-(1H-Imidazole-1-carbonyl)piperidin-3-yl)-5-(2,2-difluorobenzo[d][1.3]dioxol-5-yl)-4-oxo-4,5-dihydro-3H-1-thia-3,5,8-triazaacenaphthylene-2-carboxamide]
<5 | C=CC(=O)N1CCC[C@@H](NC(=O)c2sc3nccc4c3c2NC(=O)N4c2ccc(OC)c(C(F)(F)F)c2)C1 [Example 455, (R)—N-(1-Acryloylpiperidin-3-yl)-5-(4-methoxy-3-(trifluoromethyl)phenyl)-4-oxo-4,5-dihydro-3H-1-thia-3,5,8-triazaacenaphthylene-2-carboxamide]

The remaining lines, values behind:

Compound | BTK_I_binding pIC50
C=CC(=O)N1CCC[C@@H](NC(=O)c2sc3nccc4c3c2NC(=O)N4c2ccc(OC(F)(F)F)cc2)C1 [Example 416, (R)—N-(1-Acryloylpiperidin-3-yl)-4-oxo-5-(4-(trifluoromethoxy)phenyl)-4,5-dihydro-3H-1-thia-3,5,8-triazaacenaphthylene-2-carboxamide] | 6.7
C=CC(=O)N1CCC[C@@H](NC(=O)c2sc3nccc4c3c2NC(=O)N4c2ccc3ccccc3c2)C1 [Example 419, (R)—N-(1-Acryloylpiperidin-3-yl)-5-(naphthalen-2-yl)-4-oxo-4,5-dihydro-3H-1-thia-3,5,8-triazaacenaphthylene-2-carboxamide] | 5.7
C=CC(=O)N1CCC[C@@H](NC(=O)c2sc3nccc4c3c2NC(=O)N4c2ccn(Cc3ccccc3)n2)C1 [Example 420, (R)—N-(1-Acryloylpiperidin-3-yl)-5-(1-benzyl-1H-pyrazol-3-yl)-4-oxo-4,5-dihydro-3H-1-thia-3,5,8-triazaacenaphthylene-2-carboxamide] | 6.0
C=CC(=O)N1CCC[C@@H](NC(=O)c2sc3nccc4c3c2NC(=O)N4c2cccc(-c3ccccc3)c2)C1 [Example 421, (R)-5-([1,1′-Biphenyl]-3-yl)-N-(1-acryloylpiperidin-3-yl)-4-oxo-4,5-dihydro-3H-1-thia-3,5,8-triazaacenaphthylene-2-carboxamide] | 7.9
C=CC(=O)N1CCC[C@@H](NC(=O)c2sc3nccc4c3c2NC(=O)N4c2ccc(Cc3ccccc3)cc2)C1 [Example 422, (R)—N-(1-Acryloylpiperidin-3-yl)-5-(4-benzylphenyl)-4-oxo-4,5-dihydro-3H-1-thia-3,5,8-triazaacenaphthylene-2-carboxamide] | 7.5
C=CC(=O)N1CCC[C@@H](NC(=O)c2sc3nccc4c3c2NC(=O)N4c2ccc(-c3ccccc3)cc2)C1 [Example 423, (R)-5-([1,1′-Biphenyl]-4-yl)-N-(1-acryloylpiperidin-3-yl)-4-oxo-4,5-dihydro-3H-1-thia-3,5,8-triazaacenaphthylene-2-carboxamide] | 6.3
CN(C)CC(=O)N1CCC[C@@H](NC(=O)c2sc3nccc4c3c2NC(=O)N4c2ccc(Oc3ccccc3)cc2)C1 [Example 424, (R)—N-(1-(2-(Dimethylamino)acetyl)piperidin-3-yl)-4-oxo-5-(4-phenoxyphenyl)-4,5-dihydro-3H-1-thia-3,5,8-triazaacenaphthylene-2-carboxamide] | 7.2
CN(C)CC(=O)N1CC[C@@H](NC(=O)c2sc3nccc4c3c2NC(=O)N4c2ccc(Oc3ccccc3)cc2)C1 [Example 425, (R)—N-(1-(2-(Dimethylamino)acetyl)pyrrolidin-3-yl)-4-oxo-5-(4-phenoxyphenyl)-4,5-dihydro-3H-1-thia-3,5,8-triazaacenaphthylene-2-carboxamide] | 7.3
O=C(N[C@@H]1CCCNC1)c1sc2nccc3c2c1NC(=O)N3c1cccc(-c2ccccc2)c1 [Example 426, (R)-5-([1,1′-Biphenyl]-3-yl)-4-oxo-N-(piperidin-3-yl)-4,5-dihydro-3H-1-thia-3,5,8-triazaacenaphthylene-2-carboxamide] | 6.9
C=CC(=O)N1CCC[C@@H](NC(=O)c2sc3nccc4c3c2NC(=O)N4c2cc3ccccc3s2)C1 [Example 427, (R)—N-(1-Acryloylpiperidin-3-yl)-5-(benzo[b]thiophen-2-yl)-4-oxo-4,5-dihydro-3H-1-thia-3,5,8-triazaacenaphthylene-2-carboxamide] | 6.3
O=C(N[C@@H]1CCCNC1)c1sc2nccc3c2c1NC(=O)N3c1cc2ccccc2s1 [Example 428, (R)-5-(Benzo[b]thiophen-2-yl)-4-oxo-N-(piperidin-3-yl)-4,5-dihydro-3H-1-thia-3,5,8-triazaacenaphthylene-2-carboxamide] | <5
O=C(N[C@@H]1CCCNC1)c1sc2nccc3c2c1NC(=O)N3c1ccc2ccccc2c1 [Example 429, (R)-5-(Naphthalen-2-yl)-4-oxo-N-(piperidin-3-yl)-4,5-dihydro-3H-1-thia-3,5,8-triazaacenaphthylene-2-carboxamide] | <5
O=C(N[C@@H]1CCCNC1)c1sc2nccc3c2c1NC(=O)N3c1ccc(Cc2ccccc2)cc1 [Example 430, (R)-5-(4-Benzylphenyl)-4-oxo-N-(piperidin-3-yl)-4,5-dihydro-3H-1-thia-3,5,8-triazaacenaphthylene-2-carboxamide] | 6.3
C=CC(=O)N1CCC[C@@H](NC(=O)c2sc3nccc4c3c2NC(=O)N4c2ccc(OC3CCC3)cc2C)C1 [Example 456, (R)—N-(1-Acryloylpiperidin-3-yl)-5-(4-cyclobutoxy-2-methylphenyl)-4-oxo-4,5-dihydro-3H-1-thia-3,5,8-triazaacenaphthylene-2-carboxamide] | 7.7
C=CC(=O)N1CCC[C@@H](NC(=O)c2sc3nccc4c3c2NC(=O)N4c2ccc(OC3CCC3)cc2)C1 [Example 457, (R)—N-(1-Acryloylpiperidin-3-yl)-5-(4-cyclobutoxyphenyl)-4-oxo-4,5-dihydro-3H-1-thia-3,5,8-triazaacenaphthylene-2-carboxamide] | 7.6
